The subject of one data set is 600 bp calf thymus DNA. The data set can be described thus: DNA reductive alkylation by catalytically reduced aziridinyl quinones. Conditions: for DNA alkylation percentage: catalytic reduction, anaerobic, pH 7.4 tris buffer, 30° C., 24 h, absorbance at 550 nm. The class given is biochemical. The method, then:
DNA Alkylation Screening of Series 1-9. The extent of DNA reductive alkylation was determined by catalytic reduction of the aziridinyl quinones in the presence of 600 bp calf thymus DNA. Oxidative workup afforded DNA colored blue as a result of the aminoquinone chromophore. […] The anaerobic conditions employed for DNA reductive alkylation assays is not meant to mimic the environment of tumor cells. These conditions do permit an accurate assessment of the structural requirements for DNA alkylation by the hydroquinone species. To be sure, agents incapable of akylating DNA under these ideal conditions will not do so in the typical cellular environment.
Alkylation of DNA by Reduced Indoloquinones. To a mixture of 1-2 mg of sonicated (600 bp) calf thymus DNA in 2.0 mL of 0.05 M of pH 7.4 tris buffer and 2 mg of Pd on carbon was added a five-to-one base pair equivalent amount of the indoloquinone dissolved in 0.5 mL of dimethylsulfoxide. The resulting solution was degassed under argon for 30 min., after which the mixture was purged with H2 for 10 min. The solution was then purged with argon for 10 min. and placed in a 30° C. bath for 24 h. The reaction was opened to the air and the catalyst was removed with a Millex-PF […] syringe filter. The filtrate was adjusted to 0.3 M acetate with a 3 M stock solution of pH 5.1 acetate and then diluted with two volumes of ethanol. The mixture was chilled at −20° C. for 12 h and the DNA pellet collected by centrifuging at 12,000 g for 20 min. The pellet was redissolved in water and then precipitated and centrifuged again. The resulting blue or red pellet was suspended in ethanol, centrifuged, and dried. The dried pellet was weighed and dissolved in 1 mL of double distilled water resulting in a clear colored solution with […]max˜550 nm, □˜750 M^−1 cm^−1. This is the chromophore of the aminoquinone resulting from nucleophile-mediated opening of the aziridine ring. Model 2′-chloroethyl aminoquinones for extinction coefficient determination were prepared by treatment of the indoloquinone with HCl. {Skibo, E. B. and Xing, C., Chemistry and DNA Alkylation Reactions of Aziridinyl Quinones: Development of an Efficient Alkylating Agent of the Phosphate Backbone, Biochemistry, 1998, 37, 15199-15213}.

Data set [1] deals with NCI-H460 non-small-lung cancer cell line. The data set can be described thus: NCI In Vitro Cell Line Screening, NSC H460 cell line. The class given is cell-based. As to conditions: for GI50 / CC50: Homo sapiens; for GI50: NCI-H460, concentration for 50% growth inhibition, read-out: Log GI50 NSC H460 (converted); for CC50: NCI-H460, read-out: Log LC50 NSC H460, concentration for 50% cell kill (converted); for Log TGI NSC H460: concentration for total growth inhibition. An excerpt:
Cytotoxic and Cytostatic Screening of Series 1-9.

Data set [2] deals with human DT-diaphorase (from the non-small cell lung NCI-H460 cell line) (Homo sapiens, UniProt P15559). The data set can be described thus: DT-diaphorase substrate kinetics (recombinant enzyme, anaerobic, Lineweaver-Burke). The class given is biochemical. An excerpt: Listed in Tables 1-4 are the human DT-diaphorase kinetic parameters for Series 1-9, along with the DNA alkylation percentages. These parameters include the apparent dissociation constant KM, the apparent maximal velocity VMAX, and the substrate specificity, VMAX/KM. The designation “apparent” refers to the present of productive and nonproductive constants in KM and VMAX. {Fersht, A. R., The Hydrogen Bond in Molecular Recognition Trends, Biochem. Sci., 1987, 12, 301-304} These constants cancel in the ratio VMAX/KM, which is the best parameter to compare substrates. Human DT-diaphorase (from the non-small cell lung NCI-H460 cell line) {Beall, H. D., Mulcahy, R. T., Siegel, D., Traver, R D., Gibson, N. W., and Ross, D., Metabolism of Bioreductive Antitumor Compounds by Purified Rat and Human DT-Diaphorase Cancer Res., 1994, 54, 3196-3201 } was used to obtain these kinetic parameters. This enzyme is the same as that present in other human tissues, cancerous or otherwise.
Kinetics Studies using Recombinant DT-diaphorase. Kinetics studies were carried out in 0.05 M pH 7.4 Tris buffer under anaerobic conditions, employing Thunberg cuvettes. […] To calculate Vmax, the value of □□ must be obtained. □□ was calculated from the initial and final absorbances for complete quinone reduction; all values are between 8000 to 9000 M^−1 cm^−1. […]

The subject of data set [3] is National Cancer Institute 60-cell line. The data set can be described thus: NCI 60-cell line in vitro screen (average cytotoxicity and cancer specificity). Conditions: for Average Log LC50 60-Cell Line: mean over 60 cell lines, ± value measures cancer specificity. The method, then:
Cytotoxic and Cytostatic Screening of Series 1-9. […] The cytostatic parameters include GI50 and TGI, which are the concentrations of drug required for 50% growth inhibition and total growth inhibition, respectively. The cytotoxic parameter is the LC50, which is the concentration required for 50% cell kill.
4. […] Cancer specificity is measured from the ± value under the “Average Log LC50 60-Cell Line” heading of Table 5. A ± value greater than 2 indicates a greater than 100-fold higher/lower cytotoxicity in some histological cancer types compared to the mean cytotoxicity.
The DT-diaphorase levels in the National Cancer Institute 60-cell line in vitro screen have been determined and correlated with the cytotoxicity of antitumor agents activated by 2-electron reduction. {Fitzsimmons, S. A., Workman, P., Grever, M., Paull, K., Camalier, R., and Lewis, A. D., Reductase Enzyme Expression Across the National Cancer Institute Tumor Cell Line Panel: Correlation with Sensitivity To Mitomycin C and EO9, J. Natl. Cancer Inst., 1996, 88, 259-69}. Sensitive cancers usually include NSC lung and colon cancers (and to a lesser extent CNS, melanoma, and renal cancers) by virtue of their elevated DT-diaphorase levels.

For a further data set, the system named is B16 melanoma. Kind of data set: animal or person. The class given is in vivo. Conditions: 5 mg/Kg/Day on days 1, 5, 9; T/C at day 25; <40% active. The text has this: Shown in Tables 6 and 7 are B16 melanoma syngraft assays {Griswold, D. P., Consideration of the Subcutaneously Implanted B16 Melanoma as a Screening Model for Potential Anticancer Agents, Cancer Chemother Reports, 1972, 3, 315-324} of some members of Series 1-9, as well as related compounds previously reported from this laboratory. {Xing, C. G., Wu, P., Skibo, E. B., and Dorr, R. T., Design of cancer-specific antitumor agents based on aziridlinylcyclopent[b]indoloquinones, J. Med. Chem., 2000, 43, 457-466}. Each agent was evaluated at three doses in C57/bl mice: 2, 3 or 5 mg/kg/day, on days 1, 5, and 9 after subcutaneous tumor implantation of 10^5 cells in the front flank on day 0. “Toxic” means that there was early lethality, or ≧50% lethality prior to any deaths in the control group. The treated over control values (T/C) were measured at day 25 of the study. A T/C value <40% is considered active.
In vivo Evaluation. The B-16 melanoma in C57/bl mice syngraft model was employed to determine in vivo activity. {Griswold, D. P., Consideration of the Subcutaneously Implanted B16 Melanoma as a Screening Model for Potential Anticancer Agents, Cancer Chemother Reports, 1972, 3, 315-324}. Each agent was evaluated at three doses: 2, 3 or 5 mg/kg/day, on days 1, 5, and 9 after subcutaneous tumor implantation of 10^5 cells in the front flank on day 0. “Toxic” means that there was early lethality, or ≧50% lethality prior to any deaths in the control group. The treated over control values (T/C) were measured at day 25 of the study. A T/C value<40% is considered active. […] The control was obtained with drug-free animals.

Molecules are shown by their SMILES. Several values for one entry are separate records, joined by “and”; a condition that tells them apart may be missing. Equal entries are not always repeated.

In general, melting point refers to the temperature, or range, at which the solid turns liquid. What is called GI50 is the concentration at which growth is held to half of that of the control.

human DT-diaphorase (from the non-small cell lung NCI-H460 cell line), sequence (P15559 whole entry): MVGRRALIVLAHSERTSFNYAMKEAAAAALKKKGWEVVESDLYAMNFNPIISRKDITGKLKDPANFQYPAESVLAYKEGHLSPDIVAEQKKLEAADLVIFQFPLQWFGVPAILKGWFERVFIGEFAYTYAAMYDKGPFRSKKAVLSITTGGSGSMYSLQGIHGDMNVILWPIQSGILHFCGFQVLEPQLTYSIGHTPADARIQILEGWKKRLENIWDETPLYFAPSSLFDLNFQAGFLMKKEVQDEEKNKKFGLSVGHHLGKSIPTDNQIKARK

With `CC(=O)OC1CCc2c1[nH]c1c2C(=O)C(N2CC2)=CC1=O` (stereo not shown) [Compound 1b, 3-Acetoxy-7-aziridinyl-1,2,3,4-tetrahydrocyclopent[b]indole-5,8-dione], the melting point came out at 165 °C. The compound further displayed a DNA alkylation percentage with 600 bp calf thymus DNA of 34%.
As for `CC(=O)OC1CCc2c3c(n(C(C)=O)c21)C(=O)C=C(N1CC1)C3=O` (stereo not shown) [Compound 1c, 7-Aziridinyl-3-acetoxy-4-acetyl-1,2,3,4-tetrahydrocyclopent[b]indole-5,8-dione], the melting point is 140 °C.
`CC(=O)OC1CCc2c1[nH]c1c2C(=O)C(N2CC2)=C(C)C1=O` (stereo not shown) [Compound 2b, 3-Acetoxy-7-aziridinyl-6-methyl-1,2,3,4-tetrahydrocyclopent[b]indole-5,8-dione] yielded a melting point of 165 °C. Also, in the data set on 600 bp calf thymus DNA, the DNA alkylation percentage is 21%.
In turn, `CC(=O)OC1CCc2c3c(n(C(C)=O)c21)C(=O)C(C)=C(N1CC1)C3=O` (stereo not shown) [Compound 2c, 7-Aziridinyl-3-acetoxy-4-acetyl-6-methyl-1,2,3,4-tetrahydrocyclopent[b]indole-5,8-dione] had a melting point of 156 °C.
Consider `CC(=O)OC1CCc2c3c(n(C)c21)C(=O)C(N1CC1)=C(C)C3=O` (stereo not shown) [Compound 5b], for which the melting point was 157 °C.
In the case of `CCOC(=O)c1[nH]c2c(c1COC(C)=O)C(=O)C(N1CC1)=CC2=O` [Compound 6d, 3-Acetoxymethyl-5-aziridinyl-2-ethoxycarbonylindole-4,7-dione], in data set [1], the GI50 is 37.2 nM, the CC50 is 603 nM and the “Log TGI NSC H460” value was −6.77. In addition, in the data set on 600 bp calf thymus DNA, the “% of DNA bases reductively activated” value came to 91.2%, the “DNA alkylation (in words)” value is “high DNA alkylation percentages” and the DNA alkylation percentage is 91.2%. Besides, the DT-diaphorase specificity in data set [2] was determined as 0.0072 M⁻¹ s⁻¹. For the same compound, in data set [3], the “± value of Average Log LC50 60-Cell Line” value is recorded as roughly 1 and the “Average Log LC50 60-Cell Line” value is −5.62 ± 1.05.
Consider `CC1=C(N2CC2)C(=O)c2c(CO)c(CO)n(C)c2C1=O` [Compound 7c, 5-Aziridinyl-2,3-di(hydroxymethyl)-1,6-dimethylindole-4,7-dione], for which the melting point was 165 °C. Moreover, in the data set on 600 bp calf thymus DNA, the “DNA alkylation (in words)” value is reported as “complete loss of DNA alkylation” and the DNA alkylation percentage stood at 0%.
With `CC1=C(N2CC2)C(=O)c2c(c(CO)c(CO)n2C)C1=O` [Compound 8c, 6-Aziridinyl-2,3-di(hydroxymethyl)-1,5-dimethylindol-4,7-dione], the “In vivo T/C (Treated/Control)” value in the data set with B16 melanoma is “Toxic (“Toxic” means ≧ 50% lethality before any control growth deaths)”. Further, in data set [1], the GI50 is 38.9 nM, the CC50 was 955 nM and the “Log TGI NSC H460” value is given as −6.66. Also, the “Log GI50 NSC H460” value in data set [1] (concentration for 50% growth inhibition) was −7.27. The “Log LC50 NSC H460” value in data set [1] (human) is listed as −6.21. In addition, in the data set with 600 bp calf thymus DNA, the “DNA alkylation (in words)” value is recorded as “complete loss of DNA alkylation” and the DNA alkylation percentage worked out at 0%. Moreover, the “Average Log LC50 60-Cell Line” value in data set [3] is −4.61 ± 1.64 and −4.67 ± 2.48.

Values taken from patent US20030139609A1, “Aziridinyl quinone antitumor agents based on indoles and cyclopent[b]indoles” (priority 2001, published 2003).
